Positions of bridges follow the written chain, without caps; N, C: chain ends. Non-standard residues stand in square brackets, D forms with d. Residues, ends and D or L forms follow the SMILES beside them. NMeF = CN[C@@H](Cc1ccccc1)C(=O)O; Gly(N(CH2)3NH2) = NCCCNCC(=O)O; NMeA = CN[C@@H](C)C(=O)O; Dap = NC[C@H](N)C(=O)O; Sar = CNCC(=O)O
How the values were obtained:
GDF-11 = molecular target: T1, GDF-11 (Homo sapiens, UniProt O95390); assay: HepG2 reporter gene assay, Evaluation Procedure (2): 2-concentrations assay, GDF-11 inhibition; format: cell-based; conditions: GDF-11 10 ng/mL; for inhibition at 0.03 µM: HepG2, peptide 30nM, read-out: GDF11 Inhibition 30nM; for inhibition at 0.1 µM: HepG2, peptide 100nM, read-out: GDF11 Inhibition 100nM
T1 construct: purchased R&D systems 1958-GD-G8/CF
T1 sequence (O95390 299-407): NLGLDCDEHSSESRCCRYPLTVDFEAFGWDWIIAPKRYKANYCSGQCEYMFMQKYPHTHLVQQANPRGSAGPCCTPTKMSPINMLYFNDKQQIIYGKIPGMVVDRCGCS
Method: (§1) The pGL3(CAGA)12-luc plasmid, namely a pGL3 vector (E1751, Promega) having a luciferase gene inserted downstream of a promoter sequence with 12 CAGA repeats attached, was transfected into HepG2 cell line (HB-8065, ATCC). The culture of HepG2 cell line (HB-8065, ATCC) was performed as in the Evaluation Procedure (1).
(§2) Myostatin (788-G8/CF, R&D systems) or GDF-11 (1958-GD-G8/CF, R&D systems) was added at a final concentration of 10 ng/mL. […] At this time, blank wells, in which neither myostatin, GDF-11, nor each peptide was added, were also prepared and incubated in a CO2 incubator (37°C, 5% CO2) for 20 to 24 hours.
(§3) The medium containing the cells was removed, and a mixture containing PBS (14190144, Thermo) and a chromogenic substrate One-Glo Luciferase Assay System (E6120, Promega) at a ratio of 1:1 was added to each well at 100 µL/well. This was stirred with a plate shaker for 5 min and transferred to a 384-well plate (3570, Corning) at a volume of 20 µL/well.
(§4) The plate was centrifuged at 1,000 × g for 1 min and the luminescence signal (700 nm luminescence) was measured using a plate reader (Envision 2104, PerkinElmer). Based on the measurement results, the inhibition rate at each peptide concentration was calculated. […]

Myostatin = molecular target: T2, Myostatin (Homo sapiens, UniProt O14793); assay: HepG2 reporter gene assay, Evaluation Procedure (2): 2-concentrations assay, myostatin inhibition; format: cell-based; conditions: Myostatin 10 ng/mL, HepG2; for inhibition at 0.03 µM: peptide 30nM, read-out: Myostatin Inhibition 30nM; for inhibition at 0.1 µM: peptide 100nM, read-out: Myostatin Inhibition 100nM
T2 construct: active myostatin (also called mature myostatin) is a homodimer consisting of two C-terminal growth factor domains; purchased R&D systems 788-G8/CF
T2 sequence (O14793 267-375): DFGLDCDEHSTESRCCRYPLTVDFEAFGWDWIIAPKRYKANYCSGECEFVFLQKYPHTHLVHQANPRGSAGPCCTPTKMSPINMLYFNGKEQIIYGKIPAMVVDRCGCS
Method: as §1, §2, §3, §4

inhibition at 0.03 µM (GDF-11) [%] | inhibition at 0.1 µM (GDF-11) [%] | inhibition at 0.03 µM (Myostatin) [%] | inhibition at 0.1 µM (Myostatin) [%] | SMILES
0 | 0 | 18 | 62 | CC[C@H](C)[C@@H]1NC(=O)[C@H](Cc2ccccc2)N(C)C(=O)[C@H](Cc2ccc(O)cc2)NC(=O)[C@H](Cc2c[nH]c3ccccc23)NC(=O)[C@H](CCCNC(=N)N)NC(=O)[C@H](CN)NC(=O)CSC[C@@H](C(N)=O)NC(=O)[C@H](Cc2ccccc2)N(C)C(=O)[C@H](C)N(C)C(=O)[C@H](CC(C)C)NC(=O)[C@H](Cc2ccccc2)N(C)C(=O)[C@H](CCCNC(=N)N)NC(=O)[C@H](Cc2ccc(O)cc2)NC(=O)[C@H](Cc2ccc(O)cc2)NC(=O)CN(C)C1=O [Myostatin_000099_01Dap] ({CH2CO}-[Dap]RWY[NMeF]I[Sar]YYR[NMeF]L[NMeA][NMeF]C-NH2; thioether N-15)
0 | 0 | 55 | 82 | CC[C@H](C)[C@@H]1NC(=O)[C@H](Cc2ccccc2)N(C)C(=O)[C@H](Cc2ccc(O)cc2)NC(=O)[C@H](Cc2c[nH]c3ccccc23)NC(=O)[C@H](CCCNC(=N)N)NC(=O)[C@H](C)N(C)C(=O)CSC[C@@H](C(N)=O)NC(=O)[C@H](Cc2ccccc2)N(C)C(=O)[C@H](C)N(C)C(=O)[C@H](CC(C)C)NC(=O)[C@H](Cc2ccccc2)N(C)C(=O)[C@H](CCCNC(=N)N)NC(=O)[C@H](Cc2ccc(O)cc2)NC(=O)[C@H](Cc2ccc(O)cc2)NC(=O)CN(C)C1=O [Myostatin_000099_01meA] ({CH2CO}-[NMeA]RWY[NMeF]I[Sar]YYR[NMeF]L[NMeA][NMeF]C-NH2; thioether N-15)
0 | 12 | 69 | 89 | CC[C@H](C)[C@@H]1NC(=O)[C@H](Cc2ccccc2)N(C)C(=O)[C@H](Cc2ccc(O)cc2)NC(=O)[C@H](Cc2c[nH]c3ccccc23)NC(=O)[C@H](CCCNC(=N)N)NC(=O)[C@H](C)NC(=O)CSC[C@H](C(N)=O)NC(=O)[C@H](Cc2ccccc2)N(C)C(=O)[C@H](C)N(C)C(=O)[C@H](CC(C)C)NC(=O)[C@H](Cc2ccccc2)N(C)C(=O)[C@H](CCCNC(=N)N)NC(=O)[C@H](Cc2ccc(O)cc2)NC(=O)[C@H](Cc2ccc(O)cc2)NC(=O)CN(C)C1=O [Myostatin_000099_15dc] ({CH2CO}-ARWY[NMeF]I[Sar]YYR[NMeF]L[NMeA][NMeF][dC]-NH2; thioether N-15)

Second part, the compound before the results:

SMILES | inhibition at 0.03 µM (GDF-11) [%] | inhibition at 0.1 µM (GDF-11) [%] | inhibition at 0.03 µM (Myostatin) [%] | inhibition at 0.1 µM (Myostatin) [%]
CC[C@H](C)[C@@H]1NC(=O)[C@H](Cc2ccccc2)N(C)C(=O)[C@H](Cc2ccc(O)cc2)NC(=O)[C@H](Cc2c[nH]c3ccccc23)NC(=O)[C@H](CCCNC(=N)N)NC(=O)CN(CCCN)C(=O)CSC[C@@H](C(N)=O)NC(=O)[C@H](Cc2ccccc2)N(C)C(=O)[C@H](C)N(C)C(=O)[C@H](CC(C)C)NC(=O)[C@H](Cc2ccccc2)N(C)C(=O)[C@H](CCCNC(=N)N)NC(=O)[C@H](Cc2ccc(O)cc2)NC(=O)[C@H](Cc2ccc(O)cc2)NC(=O)CN(C)C1=O [Myostatin_000099_01ApG] ({CH2CO}-[Gly(N(CH2)3NH2)]RWY[NMeF]I[Sar]YYR[NMeF]L[NMeA][NMeF]C-NH2; thioether N-15) | 0 | 0 | 19 | 65
CC[C@H](C)[C@@H]1NC(=O)[C@H](Cc2ccccc2)N(C)C(=O)[C@H](Cc2ccc(O)cc2)NC(=O)[C@H](Cc2c[nH]c3ccccc23)NC(=O)[C@H](C)NC(=O)[C@H](C)NC(=O)CSC[C@@H](C(N)=O)NC(=O)[C@H](Cc2ccccc2)N(C)C(=O)[C@H](C)N(C)C(=O)[C@H](CC(C)C)NC(=O)[C@H](Cc2ccccc2)N(C)C(=O)[C@H](CCCNC(=N)N)NC(=O)[C@H](Cc2ccc(O)cc2)NC(=O)[C@H](Cc2ccc(O)cc2)NC(=O)CN(C)C1=O [Myostatin_000099_02A] ({CH2CO}-AAWY[NMeF]I[Sar]YYR[NMeF]L[NMeA][NMeF]C-NH2; thioether N-15) | 0 | 5 | 64 | 89
CC[C@H](C)[C@@H]1NC(=O)[C@H](Cc2ccccc2)N(C)C(=O)[C@H](Cc2ccc(O)cc2)NC(=O)[C@H](Cc2c[nH]c3ccccc23)NC(=O)[C@H](CN)NC(=O)[C@H](C)NC(=O)CSC[C@@H](C(N)=O)NC(=O)[C@H](Cc2ccccc2)N(C)C(=O)[C@H](C)N(C)C(=O)[C@H](CC(C)C)NC(=O)[C@H](Cc2ccccc2)N(C)C(=O)[C@H](CCCNC(=N)N)NC(=O)[C@H](Cc2ccc(O)cc2)NC(=O)[C@H](Cc2ccc(O)cc2)NC(=O)CN(C)C1=O [Myostatin_000099_02Dap] ({CH2CO}-A[Dap]WY[NMeF]I[Sar]YYR[NMeF]L[NMeA][NMeF]C-NH2; thioether N-15) | 0 | 2 | 50 | 82
CC[C@H](C)[C@@H]1NC(=O)[C@H](Cc2ccccc2)N(C)C(=O)[C@H](Cc2ccc(O)cc2)NC(=O)[C@H](Cc2c[nH]c3ccccc23)NC(=O)[C@H](CCC(=O)O)NC(=O)[C@H](C)NC(=O)CSC[C@@H](C(N)=O)NC(=O)[C@H](Cc2ccccc2)N(C)C(=O)[C@H](C)N(C)C(=O)[C@H](CC(C)C)NC(=O)[C@H](Cc2ccccc2)N(C)C(=O)[C@H](CCCNC(=N)N)NC(=O)[C@H](Cc2ccc(O)cc2)NC(=O)[C@H](Cc2ccc(O)cc2)NC(=O)CN(C)C1=O [Myostatin_000099_02E] ({CH2CO}-AEWY[NMeF]I[Sar]YYR[NMeF]L[NMeA][NMeF]C-NH2; thioether N-15) | 0 | 9 | 58 | 83
CC[C@H](C)[C@@H]1NC(=O)[C@H](Cc2ccccc2)N(C)C(=O)[C@H](Cc2ccc(O)cc2)NC(=O)[C@H](Cc2c[nH]c3ccccc23)NC(=O)[C@H](CCCCN)NC(=O)[C@H](C)NC(=O)CSC[C@@H](C(N)=O)NC(=O)[C@H](Cc2ccccc2)N(C)C(=O)[C@H](C)N(C)C(=O)[C@H](CC(C)C)NC(=O)[C@H](Cc2ccccc2)N(C)C(=O)[C@H](CCCNC(=N)N)NC(=O)[C@H](Cc2ccc(O)cc2)NC(=O)[C@H](Cc2ccc(O)cc2)NC(=O)CN(C)C1=O [Myostatin_000099_02K] ({CH2CO}-AKWY[NMeF]I[Sar]YYR[NMeF]L[NMeA][NMeF]C-NH2; thioether N-15) | 0 | 0 | 35 | 73
CC[C@H](C)[C@@H]1NC(=O)[C@H](Cc2ccccc2)N(C)C(=O)[C@H](Cc2ccc(O)cc2)NC(=O)[C@H](Cc2c[nH]c3ccccc23)NC(=O)[C@@H](C)NC(=O)[C@H](C)NC(=O)CSC[C@H](C(N)=O)NC(=O)[C@H](Cc2ccccc2)N(C)C(=O)[C@H](C)N(C)C(=O)[C@H](CC(C)C)NC(=O)[C@H](Cc2ccccc2)N(C)C(=O)[C@H](CCCNC(=N)N)NC(=O)[C@H](Cc2ccc(O)cc2)NC(=O)[C@H](Cc2ccc(O)cc2)NC(=O)CN(C)C1=O [Myostatin_99_2da_15dc_NH2] ({CH2CO}-A[dA]WY[NMeF]I[Sar]YYR[NMeF]L[NMeA][NMeF][dC]-NH2; thioether N-15) | 15 | 48 | 94 | 98

Source: patent publication EP4786487A1, “PEPTIDE” (Peptidream Inc, priority 2023, dated 2025)
